In the supplement of paper PMC6045584:
± gives the standard deviation of the averaged measurements.

compound: O=C(O)CC[C@H]1CC[C@@](c2cc(F)ccc2F)(S(=O)(=O)c2ccc(Cl)cc2)CC1 [MK0752]; assay: surviving fraction relative to DMSO-only wells; higher = less growth inhibition; details: 0.5 nM; exposure time: 5 days
In short: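 At 250–500 cells per well in 384-well plates, log-phase tumour cell lines were seeded and, 24 hours on, exposed continuously for five days to inhibitors at 0.5, 1, 5, 10, 50, 100, 500 and 1000 nM. Viability readout was CellTiter-Glo luminescence, reported as surviving fraction normalised to the median of DMSO-only wells.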

Test System | surviving fraction
HCC70 BREAST | 1.1 ± 0.079
HCC78 LUNG | 0.916 ± 0.12
HCC202 BREAST | 1.28 ± 0.66
HCC1806 BREAST | 0.974 ± 0.05
HCC1954 BREAST | 0.922 ± 0.069
HCT15 LARGE INTESTINE | 1.1 ± 0.032
HELA CERVIX | 1.07 ± 0.098
HMLE3 BREAST | 0.958 ± 0.049
HMT3552 BREAST | 1.05
HOS BONE | 1.03 ± 0.026
HOSMNG BONE | 0.936 ± 0.023
HS57T BREAST | 1.09 ± 0.048
HS578T BREAST | 1.02 ± 0.061
HSSYII SYNOVIAL | 0.985 ± 0.056
HT1080 SOFT TISSUE | 0.997 ± 0.018
HU09 BONE | 0.995 ± 0.11
JIMT1 BREAST | 0.966 ± 0.0054
JURKAT HAEMATOPOIETIC AND LYMPHOID TISSUE | 1.06 ± 0.026
KPD BONE | 0.998 ± 0.054
LM7 BONE | 0.915 ± 0.045
MCF7 BREAST | 0.922 ± 0.075

Test System | surviving fraction
MDAMB134 BREAST | 1.08 ± 0.067
MDAMB157 BREAST | 0.881 ± 0.054
MDAMB231 BREAST | 0.984 ± 0.033
MDAMB361 BREAST | 0.833 ± 0.044
MDAMB436 BREAST | 0.928 ± 0.052
MDAMB453 BREAST | 1.04 ± 0.078
MDAMB468 BREAST | 1.03 ± 0.085
MFM223 BREAST | 1.21 ± 0.047
MG63 BONE | 1.07 ± 0.047
MHM BONE | 1 ± 0.032
NCIH441 LUNG | 0.971 ± 0.21
NOS1 BONE | 1.08 ± 0.058
NY BONE | 1.04 ± 0.025
OS25HAL BONE | 1 ± 0.016
OSHN BONE | 1.12 ± 0.034
PCI30 HEADNECK | 1.02 ± 0.12
RDES SOFT TISSUE | 1.27 ± 0.1
S68 BREAST | 0.684 ± 0.15
SAOS2 BONE | 1.18 ± 0.028
SCC36 HEADNECK | 1.06 ± 0.15

same assay, conditions: 1 nM; exposure time: 5 days

Test System | surviving fraction
HCC70 BREAST | 1.07 ± 0.05
HCC78 LUNG | 0.966 ± 0.16
HCC202 BREAST | 0.775 ± 0.51
HCC1806 BREAST | 1.15 ± 0.15
HCC1954 BREAST | 0.747 ± 0.054
HCT15 LARGE INTESTINE | 1.08 ± 0.05
HELA CERVIX | 1.14 ± 0.056
HMLE3 BREAST | 1.06 ± 0.039
HMT3552 BREAST | 1.07
HOS BONE | 1.02 ± 0.037
HOSMNG BONE | 1.02 ± 0.037
HS57T BREAST | 1.09 ± 0.059
HS578T BREAST | 0.87 ± 0.15
HSSYII SYNOVIAL | 1 ± 0.056
HT1080 SOFT TISSUE | 1.02 ± 0.034
HU09 BONE | 1.06 ± 0.052
JIMT1 BREAST | 0.988 ± 0.018
JURKAT HAEMATOPOIETIC AND LYMPHOID TISSUE | 1.07 ± 0.021
KPD BONE | 0.986 ± 0.046
LM7 BONE | 0.93 ± 0.078
MCF7 BREAST | 0.916 ± 0.04

Test System | surviving fraction
MDAMB134 BREAST | 1.14 ± 0.093
MDAMB157 BREAST | 0.981 ± 0.045
MDAMB231 BREAST | 0.993 ± 0.015
MDAMB361 BREAST | 0.904 ± 0.077
MDAMB436 BREAST | 0.895 ± 0.12
MDAMB453 BREAST | 1.06 ± 0.052
MDAMB468 BREAST | 1.01 ± 0.074
MFM223 BREAST | 1.14 ± 0.13
MG63 BONE | 1.07 ± 0.033
MHM BONE | 1.04 ± 0.029
NCIH441 LUNG | 1 ± 0.17
NOS1 BONE | 1.19 ± 0.087
NY BONE | 1.07 ± 0.03
OS25HAL BONE | 1.04 ± 0.029
OSHN BONE | 1.14 ± 0.035
PCI30 HEADNECK | 1.04 ± 0.12
RDES SOFT TISSUE | 1.241 ± 0.0096
S68 BREAST | 0.975 ± 0.11
SAOS2 BONE | 1.2037 ± 0.00058
SCC36 HEADNECK | 1.13 ± 0.14
